Results taken from ChEMBL document CHEMBL4385605, “Synthesis and Structure-Affinity Relationships of Spirocyclic Benzopyrans with Exocyclic Amino Moiety” (J Med Chem, 2019).
Activity calls are given as the source filed them. The calls are words filed in the database; no cut-off is given here.

What was measured:
[1] = molecular target: Kappa-type opioid receptor (Cavia porcellus, UniProt P41144); assay: Displacement of [3H]U69,593 from kappa opioid receptor in guinea pig brain membrane after 120 mins by scintillation counting analysis; assay type: cell membranes
[2] = molecular target: Sigma intracellular receptor 2 (Homo sapiens, UniProt Q5BJF2); assay: Displacement of [3H]-di-o-tolylguanidine from sigma2 receptor in human RT4 cell membranes at 1 uM after 120 mins in the presence of sigma1 receptor ligand (+)-pentazocine by scintillation counting method relative to control
Sus scrofa = species on record: Sus scrofa; assay: Displacement of [3H]-(+)-MK-801 from PCP binding site of NMDA receptor in pig brain cortex membranes up to 1 uM after 120 mins by scintillation counting analysis; assay type: cell membranes
Mu-type opioid receptor [3] = molecular target: Mu-type opioid receptor (Cavia porcellus, UniProt P97266); assay: Displacement of [3H]DAMGO from mu opioid receptor in guinea pig brain membranes after 120 mins by scintillation counting analysis; assay type: cell membranes
[4] = molecular target: T1, Sigma intracellular receptor 2 (Rattus norvegicus, UniProt Q5U3Y7); assay: Displacement of [3H]-di-o-tolylguanidine from sigma2 receptor in rat liver membranes incubated for 120 mins in the presence of sigma1 receptor ligand (+)-pentazocine by scintillation counting method; assay type: cell membranes
T1 sequence (Q5U3Y7 whole entry): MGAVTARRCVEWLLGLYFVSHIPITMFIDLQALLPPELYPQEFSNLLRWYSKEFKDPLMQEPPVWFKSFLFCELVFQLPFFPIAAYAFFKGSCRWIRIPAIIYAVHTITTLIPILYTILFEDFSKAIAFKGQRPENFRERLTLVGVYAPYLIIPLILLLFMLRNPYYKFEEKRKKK

Cavia porcellus = species on record: Cavia porcellus; assay: Selectivity ratio of Ki for displacement of [3H](+)-pentazocine from sigma 1 receptor in guinea pig brain cortex membranes to Ki for displacement of [3H]DAMGO from mu opioid receptor in guinea pig brain membranes; assay type: cell membranes
[5] = Selectivity ratio of Ki for displacement of [3H]DTG from sigma2 receptor in rat liver membranes to Ki for displacement of (+)-[3H]pentazocine from sigma 1 receptor in guinea pig brain cortex membranes; assay type: cell membranes
[6] = molecular target: Delta-type opioid receptor (Rattus norvegicus, UniProt P33533); assay: Displacement of [3H]DPDPE from delta opioid receptor in rat membranes after 120 mins by scintillation counting analysis; assay type: cell membranes
[7] = molecular target: Sodium-dependent dopamine transporter (Homo sapiens) (UniProt Q01959); assay: Binding affinity to dopamine transporter (unknown origin) at 1 uM
Cytochrome P450 2C9 = Cytochrome P450 2C9 (Homo sapiens, UniProt P11712); assay: Inhibition of recombinant human CYP2C9 at 1 uM by fluorescence assay; assay type: ADME; conditions: recombinant enzyme
[8] = molecular target: T2, Alpha-1A adrenergic receptor (Homo sapiens) (UniProt P35348); assay: Binding affinity to alpha 1a adrenergic receptor (unknown origin) at 1 uM relative to control
T2 sequence (whole entry): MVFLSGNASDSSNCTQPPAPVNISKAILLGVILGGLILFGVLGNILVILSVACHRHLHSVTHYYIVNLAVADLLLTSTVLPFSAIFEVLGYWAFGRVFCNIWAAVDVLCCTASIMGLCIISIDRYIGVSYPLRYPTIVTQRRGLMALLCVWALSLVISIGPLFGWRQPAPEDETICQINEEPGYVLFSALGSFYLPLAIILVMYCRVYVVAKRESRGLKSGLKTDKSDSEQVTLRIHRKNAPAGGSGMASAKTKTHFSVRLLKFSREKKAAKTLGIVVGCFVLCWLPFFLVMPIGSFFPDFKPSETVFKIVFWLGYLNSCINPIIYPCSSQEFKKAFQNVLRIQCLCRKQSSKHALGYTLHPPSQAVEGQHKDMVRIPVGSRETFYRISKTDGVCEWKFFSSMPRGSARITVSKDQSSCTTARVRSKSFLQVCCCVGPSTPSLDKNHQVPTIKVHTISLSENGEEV

Cytochrome P450 3A4 = Cytochrome P450 3A4 (Homo sapiens, UniProt P08684); assay: Inhibition of recombinant human CYP3A4 at 1 uM by fluorescence assay; assay type: ADME; conditions: recombinant enzyme
[9] = molecular target: 5-hydroxytryptamine receptor 2B (Homo sapiens) (UniProt P41595); assay: Binding affinity to 5-HT2BR (unknown origin) at 1 uM relative to control
Cytochrome P450 1A2 = molecular target: T3, Cytochrome P450 1A2 (Homo sapiens, UniProt P05177); assay: Inhibition of recombinant human CYP1A2 at 1 uM by fluorescence assay; assay type: ADME; conditions: recombinant enzyme
T3 sequence (P05177 whole entry): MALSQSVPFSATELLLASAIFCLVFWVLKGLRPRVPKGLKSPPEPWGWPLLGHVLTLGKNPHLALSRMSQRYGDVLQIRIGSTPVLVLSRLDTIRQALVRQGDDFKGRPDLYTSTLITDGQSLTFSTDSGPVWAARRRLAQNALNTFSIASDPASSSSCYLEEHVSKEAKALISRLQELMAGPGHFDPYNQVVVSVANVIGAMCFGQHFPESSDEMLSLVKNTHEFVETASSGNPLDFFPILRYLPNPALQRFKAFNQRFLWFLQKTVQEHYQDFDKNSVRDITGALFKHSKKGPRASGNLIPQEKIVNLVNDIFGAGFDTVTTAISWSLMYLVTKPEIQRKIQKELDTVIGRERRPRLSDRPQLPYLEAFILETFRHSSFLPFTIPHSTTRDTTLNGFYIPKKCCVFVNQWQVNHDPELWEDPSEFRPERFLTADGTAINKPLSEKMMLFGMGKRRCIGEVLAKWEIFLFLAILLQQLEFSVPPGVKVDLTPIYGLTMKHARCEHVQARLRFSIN

HepG2 [10] = assay: Cytotoxicity against human HepG2 cells at 1 to 100 uM incubated for 20 hrs under serum free condition by MTT assay; assay type: cell-based; conditions: hepg2, 20 h
HepG2 [11] = assay: Cytotoxicity against human HepG2 cells at 1 to 100 uM incubated for 20 hrs under serum free condition by neutral red uptake assay; assay type: cell-based; conditions: hepg2, 20 h
[12] = Metabolic stability in human liver microsomes assessed as parent compound remaining at 1 uM in the presence of NADPH regenerating system after 60 mins by UPLC/MS analysis; assay type: ADME, Microsome; conditions: read-out: Stability
Cytochrome P450 2C19 = Cytochrome P450 2C19 (Homo sapiens, UniProt P33261); assay: Inhibition of recombinant human CYP2C19 at 1 uM by fluorescence assay; assay type: ADME; conditions: recombinant enzyme
[13] = molecular target: Sigma non-opioid intracellular receptor 1 (Homo sapiens, UniProt Q99720); assay: Displacement of [3H](+)-pentazocine from sigma 1 receptor in human RPMI8226 cell membranes incubated for 2 hrs under shaking by scintillation counting analysis
[14] = molecular target: Sodium-dependent noradrenaline transporter (Homo sapiens) (UniProt P23975); assay: Binding affinity to noradrenaline transporter (unknown origin) at 1 uM
[15] = molecular target: T4, Alpha-2A adrenergic receptor (Homo sapiens) (UniProt P08913); assay: Binding affinity to alpha 2a adrenergic receptor (unknown origin) at 1 uM relative to control
T4 sequence (whole entry): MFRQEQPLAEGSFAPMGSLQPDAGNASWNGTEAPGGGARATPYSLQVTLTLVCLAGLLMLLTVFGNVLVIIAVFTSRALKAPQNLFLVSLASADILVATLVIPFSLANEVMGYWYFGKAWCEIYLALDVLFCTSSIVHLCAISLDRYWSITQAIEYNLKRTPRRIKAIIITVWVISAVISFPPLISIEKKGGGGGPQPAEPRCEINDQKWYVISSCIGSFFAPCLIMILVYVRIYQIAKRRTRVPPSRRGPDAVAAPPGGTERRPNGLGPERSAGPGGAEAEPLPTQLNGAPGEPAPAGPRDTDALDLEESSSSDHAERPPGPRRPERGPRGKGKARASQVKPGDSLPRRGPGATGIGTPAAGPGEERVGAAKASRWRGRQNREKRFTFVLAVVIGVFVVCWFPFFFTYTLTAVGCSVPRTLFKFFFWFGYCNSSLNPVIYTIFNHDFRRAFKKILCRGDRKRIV

[16] = molecular target: T5, 5-hydroxytryptamine receptor 1A (Homo sapiens) (UniProt P08908); assay: Binding affinity to 5-HT1AR (unknown origin) at 1 uM relative to control
T5 sequence (whole entry): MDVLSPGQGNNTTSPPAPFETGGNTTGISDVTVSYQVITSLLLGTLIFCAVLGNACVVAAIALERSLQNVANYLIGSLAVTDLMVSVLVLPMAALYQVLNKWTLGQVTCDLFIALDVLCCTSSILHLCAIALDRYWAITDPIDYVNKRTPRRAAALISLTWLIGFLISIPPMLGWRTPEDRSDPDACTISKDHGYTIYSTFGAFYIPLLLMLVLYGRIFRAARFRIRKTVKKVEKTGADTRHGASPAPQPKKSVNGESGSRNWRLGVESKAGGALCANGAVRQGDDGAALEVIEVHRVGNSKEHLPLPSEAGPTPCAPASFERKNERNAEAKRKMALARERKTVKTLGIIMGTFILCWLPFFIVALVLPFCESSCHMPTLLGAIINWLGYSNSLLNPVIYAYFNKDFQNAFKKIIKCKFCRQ

CYP2D6 = CYP2D6 (Homo sapiens, UniProt P10635); assay: Inhibition of recombinant human CYP2D6 at 1 uM by fluorescence assay relative to control; assay type: ADME
[17] = molecular target: Sigma non-opioid intracellular receptor 1 (Cavia porcellus, UniProt Q60492); assay: Displacement of [3H](+)-pentazocine from sigma 1 receptor in guinea pig brain cortex membranes after 120 mins by scintillation counting analysis; assay type: cell membranes
[18] = molecular target: Sodium-dependent serotonin transporter (Homo sapiens) (UniProt P31645); assay: Binding affinity to serotonin transporter (unknown origin) at 1 uM
[19] = molecular target: Sigma intracellular receptor 2 (Rattus norvegicus) (UniProt Q5U3Y7); assay: Displacement of [3H]-di-o-tolylguanidine from sigma2 receptor in rat liver membranes at 1 uM incubated for 120 mins in the presence of sigma1 receptor ligand (+)-pentazocine by scintillation counting method relative to control; assay type: cell membranes
[20] = molecular target: Delta-type opioid receptor (Rattus norvegicus) (UniProt P33533); assay: Displacement of [3H]DPDPE from delta opioid receptor in rat membrane at 1 uM after 120 mins by scintillation counting analysis relative to control; assay type: cell membranes
Mu-type opioid receptor [21] = molecular target: Mu-type opioid receptor (Homo sapiens, UniProt P35372); assay: Binding affinity to human mu opioid receptor by cell based assay
[22] = molecular target: Mu-type opioid receptor (Cavia porcellus) (UniProt P97266); assay: Displacement of [3H]DAMGO from mu opioid receptor in guinea pig brain membranes at 1 uM after 120 mins by scintillation counting analysis relative to control; assay type: cell membranes
Chain of Mu-type opioid receptor (Cavia porcellus) (P97266 whole entry): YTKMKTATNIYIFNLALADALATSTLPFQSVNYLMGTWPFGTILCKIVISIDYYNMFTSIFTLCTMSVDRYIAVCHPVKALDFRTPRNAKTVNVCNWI

Chain of Cytochrome P450 3A4 (P08684 whole entry): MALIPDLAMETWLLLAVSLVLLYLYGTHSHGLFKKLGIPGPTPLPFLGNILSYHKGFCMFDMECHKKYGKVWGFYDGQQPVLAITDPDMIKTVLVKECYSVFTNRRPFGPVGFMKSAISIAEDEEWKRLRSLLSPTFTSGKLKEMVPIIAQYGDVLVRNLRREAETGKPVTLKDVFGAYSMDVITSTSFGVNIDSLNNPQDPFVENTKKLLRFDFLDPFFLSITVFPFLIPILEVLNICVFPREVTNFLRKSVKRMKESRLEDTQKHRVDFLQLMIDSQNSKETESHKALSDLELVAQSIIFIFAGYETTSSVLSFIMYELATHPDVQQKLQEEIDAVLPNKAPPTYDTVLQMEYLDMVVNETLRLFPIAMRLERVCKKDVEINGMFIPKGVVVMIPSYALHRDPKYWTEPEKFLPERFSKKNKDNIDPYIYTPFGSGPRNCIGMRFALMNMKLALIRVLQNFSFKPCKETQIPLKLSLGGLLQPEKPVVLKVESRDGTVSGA
Chain of Sodium-dependent serotonin transporter (Homo sapiens) (P31645 whole entry, looked up): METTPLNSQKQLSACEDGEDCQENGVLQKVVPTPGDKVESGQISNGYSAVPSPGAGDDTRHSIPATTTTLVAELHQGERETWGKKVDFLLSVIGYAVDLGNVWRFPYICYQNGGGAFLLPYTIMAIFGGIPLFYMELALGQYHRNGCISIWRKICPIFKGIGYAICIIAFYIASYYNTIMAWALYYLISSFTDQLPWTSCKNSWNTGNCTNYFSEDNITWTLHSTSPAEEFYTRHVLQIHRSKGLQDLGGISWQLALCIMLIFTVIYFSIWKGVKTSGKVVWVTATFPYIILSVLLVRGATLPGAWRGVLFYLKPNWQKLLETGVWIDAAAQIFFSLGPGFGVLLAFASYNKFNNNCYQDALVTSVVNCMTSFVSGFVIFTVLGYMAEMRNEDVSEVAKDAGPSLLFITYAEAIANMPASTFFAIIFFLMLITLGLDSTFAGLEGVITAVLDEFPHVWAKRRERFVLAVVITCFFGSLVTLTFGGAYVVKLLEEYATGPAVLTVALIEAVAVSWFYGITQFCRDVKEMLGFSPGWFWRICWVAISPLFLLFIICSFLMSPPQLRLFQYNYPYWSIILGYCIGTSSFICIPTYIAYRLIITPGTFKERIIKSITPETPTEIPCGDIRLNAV
Chain of Mu-type opioid receptor (Cavia porcellus, UniProt P97266) (P97266 whole entry): as the sequence (P97266 whole entry) above
Chain of Sigma non-opioid intracellular receptor 1 (Homo sapiens, UniProt Q99720) (Q99720 whole entry): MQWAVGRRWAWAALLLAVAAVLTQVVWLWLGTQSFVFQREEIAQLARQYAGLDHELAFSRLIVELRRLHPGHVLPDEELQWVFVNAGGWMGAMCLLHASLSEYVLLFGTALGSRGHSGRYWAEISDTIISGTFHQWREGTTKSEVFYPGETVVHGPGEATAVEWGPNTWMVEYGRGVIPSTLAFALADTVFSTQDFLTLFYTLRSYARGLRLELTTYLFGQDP
Chain of Cytochrome P450 2C19 (P33261 whole entry): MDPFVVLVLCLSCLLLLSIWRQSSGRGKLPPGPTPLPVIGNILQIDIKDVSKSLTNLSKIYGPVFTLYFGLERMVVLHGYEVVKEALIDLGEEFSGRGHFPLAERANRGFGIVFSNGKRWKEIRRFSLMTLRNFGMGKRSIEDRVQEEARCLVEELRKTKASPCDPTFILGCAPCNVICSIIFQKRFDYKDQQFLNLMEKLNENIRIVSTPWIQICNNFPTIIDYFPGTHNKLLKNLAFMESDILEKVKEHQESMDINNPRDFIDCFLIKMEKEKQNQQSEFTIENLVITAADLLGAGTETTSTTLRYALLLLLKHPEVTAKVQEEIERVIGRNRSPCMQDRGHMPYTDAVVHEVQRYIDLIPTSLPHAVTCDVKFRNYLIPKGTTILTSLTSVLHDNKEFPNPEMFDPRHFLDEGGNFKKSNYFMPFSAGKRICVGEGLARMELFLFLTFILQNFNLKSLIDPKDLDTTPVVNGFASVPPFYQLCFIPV
Chain of Cytochrome P450 2C9 (P11712 whole entry): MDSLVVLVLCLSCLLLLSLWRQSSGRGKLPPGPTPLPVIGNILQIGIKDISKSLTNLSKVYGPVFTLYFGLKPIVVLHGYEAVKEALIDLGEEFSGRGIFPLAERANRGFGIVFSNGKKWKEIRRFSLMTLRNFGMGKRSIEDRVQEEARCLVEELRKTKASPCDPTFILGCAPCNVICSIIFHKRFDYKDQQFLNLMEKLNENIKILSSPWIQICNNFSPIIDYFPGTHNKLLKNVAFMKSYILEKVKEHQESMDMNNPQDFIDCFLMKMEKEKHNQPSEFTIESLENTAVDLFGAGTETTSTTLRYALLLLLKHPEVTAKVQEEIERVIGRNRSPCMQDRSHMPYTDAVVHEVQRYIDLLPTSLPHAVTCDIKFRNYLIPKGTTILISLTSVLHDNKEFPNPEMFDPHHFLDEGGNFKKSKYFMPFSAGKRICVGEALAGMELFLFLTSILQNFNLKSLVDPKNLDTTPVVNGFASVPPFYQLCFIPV
Chain of Sigma non-opioid intracellular receptor 1 (Cavia porcellus, UniProt Q60492) (Q60492 whole entry): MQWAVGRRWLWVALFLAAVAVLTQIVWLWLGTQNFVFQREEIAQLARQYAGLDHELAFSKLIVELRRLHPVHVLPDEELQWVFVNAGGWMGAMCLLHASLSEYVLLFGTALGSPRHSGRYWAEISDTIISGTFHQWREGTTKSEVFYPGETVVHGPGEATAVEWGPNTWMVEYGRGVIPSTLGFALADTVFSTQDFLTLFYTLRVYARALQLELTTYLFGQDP
Chain of CYP2D6 (P10635 whole entry): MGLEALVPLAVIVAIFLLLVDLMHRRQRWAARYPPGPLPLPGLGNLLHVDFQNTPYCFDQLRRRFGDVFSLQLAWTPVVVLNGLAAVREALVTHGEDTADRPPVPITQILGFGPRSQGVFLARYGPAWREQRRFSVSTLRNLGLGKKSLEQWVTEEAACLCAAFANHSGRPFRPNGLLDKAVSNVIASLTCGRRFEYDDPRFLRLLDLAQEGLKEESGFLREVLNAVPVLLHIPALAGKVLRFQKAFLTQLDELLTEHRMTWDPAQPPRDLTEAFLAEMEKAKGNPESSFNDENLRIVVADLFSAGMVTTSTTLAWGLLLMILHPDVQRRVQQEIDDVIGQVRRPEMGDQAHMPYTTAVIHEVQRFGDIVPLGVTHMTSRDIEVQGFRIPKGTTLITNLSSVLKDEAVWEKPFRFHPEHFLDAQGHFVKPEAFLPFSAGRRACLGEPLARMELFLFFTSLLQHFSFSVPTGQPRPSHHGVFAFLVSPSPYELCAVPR
Chain of Delta-type opioid receptor (P33533 whole entry): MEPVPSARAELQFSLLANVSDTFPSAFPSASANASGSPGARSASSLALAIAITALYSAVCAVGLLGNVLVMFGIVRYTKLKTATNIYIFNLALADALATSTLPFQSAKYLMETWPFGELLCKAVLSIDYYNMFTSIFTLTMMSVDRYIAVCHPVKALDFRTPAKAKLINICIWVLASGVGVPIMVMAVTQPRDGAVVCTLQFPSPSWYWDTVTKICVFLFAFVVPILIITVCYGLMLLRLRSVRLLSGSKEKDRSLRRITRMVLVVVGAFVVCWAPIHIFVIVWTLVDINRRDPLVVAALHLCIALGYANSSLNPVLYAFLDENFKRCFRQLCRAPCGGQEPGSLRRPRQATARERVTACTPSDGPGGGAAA
Chain of Sodium-dependent dopamine transporter (Homo sapiens) (Q01959 whole entry): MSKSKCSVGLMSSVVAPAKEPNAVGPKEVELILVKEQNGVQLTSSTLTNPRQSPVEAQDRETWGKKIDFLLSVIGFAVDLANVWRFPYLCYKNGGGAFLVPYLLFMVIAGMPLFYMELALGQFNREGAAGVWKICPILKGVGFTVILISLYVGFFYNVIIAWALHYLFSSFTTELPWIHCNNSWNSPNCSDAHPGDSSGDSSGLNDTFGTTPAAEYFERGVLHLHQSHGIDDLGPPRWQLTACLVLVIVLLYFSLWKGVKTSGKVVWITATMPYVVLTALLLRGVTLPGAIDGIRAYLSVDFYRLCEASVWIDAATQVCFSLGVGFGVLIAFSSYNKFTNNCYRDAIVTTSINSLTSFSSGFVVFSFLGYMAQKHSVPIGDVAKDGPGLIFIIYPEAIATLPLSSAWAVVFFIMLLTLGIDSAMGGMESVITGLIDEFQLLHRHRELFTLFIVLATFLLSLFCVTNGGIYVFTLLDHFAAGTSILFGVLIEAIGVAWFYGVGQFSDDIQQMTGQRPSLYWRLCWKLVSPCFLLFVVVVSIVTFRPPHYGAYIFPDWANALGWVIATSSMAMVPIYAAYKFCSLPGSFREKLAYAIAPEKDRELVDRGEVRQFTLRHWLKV
Chain of Kappa-type opioid receptor (P41144 whole entry): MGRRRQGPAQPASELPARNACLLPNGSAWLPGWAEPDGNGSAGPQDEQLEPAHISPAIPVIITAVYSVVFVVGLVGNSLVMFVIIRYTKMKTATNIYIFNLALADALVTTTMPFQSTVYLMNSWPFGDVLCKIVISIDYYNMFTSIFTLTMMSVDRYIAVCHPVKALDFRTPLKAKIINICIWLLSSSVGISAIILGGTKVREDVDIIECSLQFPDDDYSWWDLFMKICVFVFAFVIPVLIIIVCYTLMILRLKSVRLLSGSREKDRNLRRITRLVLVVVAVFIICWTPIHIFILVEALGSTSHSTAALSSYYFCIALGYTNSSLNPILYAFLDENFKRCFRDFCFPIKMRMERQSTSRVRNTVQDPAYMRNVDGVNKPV
Chain of Sigma intracellular receptor 2 (Homo sapiens, UniProt Q5BJF2) (Q5BJF2 whole entry): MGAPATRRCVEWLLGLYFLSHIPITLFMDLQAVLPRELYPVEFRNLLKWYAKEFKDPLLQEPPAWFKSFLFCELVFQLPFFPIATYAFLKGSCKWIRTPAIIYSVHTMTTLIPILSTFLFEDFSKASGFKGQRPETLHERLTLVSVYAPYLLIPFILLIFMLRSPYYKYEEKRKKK
Chain of Delta-type opioid receptor (Rattus norvegicus) (P33533 whole entry): as the sequence (P33533 whole entry) above

Row | Ki [1] [nM] | Activity (Sus scrofa) | Ki (Mu-type opioid receptor [3]) [nM] | Ki [4] [nM] | Ratio Ki [5] | Ki [6] [nM] | Activity [7] | inhibition (INH) (Cytochrome P450 2C9) | Activity [8] | inhibition (INH) (Cytochrome P450 3A4) | Activity [9] | inhibition (INH) (Cytochrome P450 1A2) | remaining at 1 h, 1 µM [12] [%] | inhibition (INH) (Cytochrome P450 2C19) | Ki [13] [nM] | Activity [14] | Activity [15] | Activity [16] | SMILES | Activity (HepG2 [10]) | Activity (HepG2 [11]) | other results
1 | 204 | inactive | 38 | 2000 | 5 to 10 | 49 | – | – | – | – | – | – | – | – | – | – | – | – | COC1Cc2ccccc2[C@]2(CC[C@@H](NCc3ccccc3)CC2)O1 (some centres undefined) | – | – | inhibition [2]: 40%; Ratio Ki (Cavia porcellus): 14
2 | 250 | inactive | 41 | 1440 | 5 to 10 | 371 | inactive | Not Active | inactive | Not Active | inactive | Not Active | > 50 | Not Active | 40 | inactive | inactive | inactive | COC1Cc2ccccc2[C@]2(CC[C@@H](N(C)Cc3ccccc3)CC2)O1 (some centres undefined) | Non-Toxic | Non-Toxic | inhibition at 1 µM (CYP2D6): > 90%; Activity [18]: inactive; Ki (Mu-type opioid receptor [21]): 18 nM
3 | 2300 | inactive | – | 329 | 5 to 10 | 1300 | inactive | Not Active | inactive | Not Active | inactive | Not Active | > 50 | Not Active | 39 | inactive | inactive | inactive | COC1Cc2ccccc2[C@]2(CC[C@H](N(C)Cc3ccccc3)CC2)O1 (some centres undefined) | Non-Toxic | Non-Toxic | inhibition [22]: 12%; inhibition at 1 µM (CYP2D6): > 90%; Activity [18]: inactive

Second part, the molecule before the results:

Row | SMILES | Ki [1] [nM] | Activity (Sus scrofa) | Ki (Mu-type opioid receptor [3]) [nM] | Ki [4] [nM] | Ratio Ki [5] | Ki [6] [nM] | Activity [7] | inhibition (INH) (Cytochrome P450 2C9) | Activity [8] | inhibition (INH) (Cytochrome P450 3A4) | Activity [9] | inhibition (INH) (Cytochrome P450 1A2) | remaining at 1 h, 1 µM [12] [%] | inhibition (INH) (Cytochrome P450 2C19) | Ki [13] [nM] | Activity [14] | Activity [15] | Activity [16] | Activity (HepG2 [10]) | Activity (HepG2 [11]) | other results
4 | COC1Cc2ccccc2[C@]2(CC[C@@H](N(C)CC3CCCCC3)CC2)O1 (some centres undefined) | 980 | inactive | 299 | 154 | 50 | 150 | inactive | Not Active | inactive | Not Active | inactive | Not Active | > 50 | Not Active | 6.9 | inactive | inactive | inactive | Non-Toxic | Non-Toxic | inhibition at 1 µM (CYP2D6): > 90%; Ki [17]: 3.1 nM; Activity [18]: inactive
5 | COC1O[C@]2(CC[C@H](NCc3ccccc3)CC2)c2ccccc21 (some centres undefined) | 413 | – | 115 | – | 5 to 10 | – | – | – | – | – | – | – | – | – | – | – | – | – | – | – | inhibition [19]: 25%; inhibition [20]: 30%; Ki [17]: 262 nM
6 | c1ccc(CN[C@H]2CC[C@@]3(CC2)OCCc2ccccc23)cc1 | 85 | – | 31 | – | 5 to 10 | 14 | – | – | – | – | – | – | – | – | – | – | – | – | – | – | inhibition [19]: 13%; Ratio Ki (Cavia porcellus): 8.5; Ki [17]: 256 nM
